Ends that are not written are not given here.

Type in all cases: binding, human
The test system of test [1] is antibodies in antisera from HIV-1 infected persons. As to the kind of experiment: ELISA with HIV-1 antibody-positive sera (biotinylated peptides on streptavidin- or avidin-coated plates, unbiotinylated peptides coated directly). The settings on record: for number borderline / number negative / number positive / percent borderline / percent negative / percent positive: Table 16. As to the method: (§1) Where peptides were to be coated directly, stock solutions of the peptides were diluted in sodium carbonate buffer, pH 9.6 and used to coat polystyrene microtiter plates at a peptide concentration of 2 to 5 micrograms per milliliter for 1 hour at 37° C.
(§2) In cases where biotinylated peptides were to be evaluated, plates were first coated with streptavidin in sodium carbonate buffer, pH 9.6 at a concentration of 3 micrograms per milliliter for 1 hour at 37° C. The plates were then washed to remove excess, unbound protein. A working solution of the biotinylated peptide at 1 microgram per milliliter in sodium carbonate buffer was then added to the wells of the microtiter plate and incubated for 1 hours at 37° C.
(§3) Once the plates had been coated with antigen, any remaining free binding sites on the plastic were blocked with casein. After washing, a dilution of the appropriate antisera, usually 1:100, was added to the wells of the plates and incubated for 1 hour at 37° C.
(§4) After washing to remove unbound material, specific antibody binding was detected by incubating the plates with goat anti-human immunoglobulin antibodies conjugated to the enzyme horseradish peroxidase. Following removal of unbound conjugate by washing, a solution containing H2O2 and 3,3′,5,5′-tetramethylbenzidine was added.
(§5) Reactions were stopped after a suitable interval by addition of sulfuric acid. […] Absorbance measurements were made at a wavelength of 450 nanometers and all data are expressed as an optical density value at this wavelength.
Experiments were performed to evaluate antibody recognition of short, 10 amino acid-long, N-acetylated peptides corresponding to other contained within the transmembrane proteins of HIV-1 and HIV-2. […] The peptides used for the comparison were as follows:
Antibody binding to these peptides was compared to antibody binding to the unibiotinylated peptides which were coated directly onto microtiter plates.
In order to evaluate antibody recognition of these two peptides, the peptides were bound individually to streptavidin-coated microtiter plates and tested using a panel of antisera from HIV-1 seropositive donors.
(§6) To determine how well biotinylated peptides would function in a mixture when bound to streptavidin- or avidin-coated plates, two mixtures were made of the N-terminally biotinylated versions of the HIV-1 peptides TM-HIV-1 (hereabove referred to as 1a.1) and V3-nm (hereabove referred to as 1b.4), the HIV-2 peptide TM-HIV-2 (hereabove referred to as 2a), and the hepatitis C virus peptides II, IX, and XVIII. Mixture A contained each of the six biotinylated peptides at a concentration of 1 microgram per milliliter (6 micrograms per milliliter peptide, total) while in mixture B, each peptide was present at a concentration of 0.1 microgram per milliliter (0.6 microgram per milliliter peptide, total). The individual peptides were coated at a concentration of 1 microgram per milliliter. For purposes of comparison, mixtures A and B were also coated directly onto the wells of a microtiter plate. Samples from HIV-1, HIV-2, and HCV-seropositive donors were tested and compared to sera from seronegative blood donors. A cut-off absorbance value of 0.250 was used to determine whether a reaction was positive or negative. Absorbance values equal or greater than 0.250 were considered positive while absorbance values below this value were considered negative.
A spacer consisting of two glycine residues was added to the amino terminus.

Test [2] in a line: ELISA with seronegative / negative control sera (specificity). In short, it runs like this:
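Specificity readout is OD at 450 nm (HRP goat anti-human Ig, TMB/H2O2, sulfuric acid stop), with ≥0.250 counted positive. Seronegative donor sera (typically 1:100, 1 h, 37° C) were applied to casein-blocked wells coated with peptide directly or via streptavidin capture of biotinylated peptide.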

Test [3] concerns antibodies in antisera from HIV-2 infected persons. As to the kind of experiment: ELISA with HIV-2 antibody-positive sera (biotinylated peptides on streptavidin- or avidin-coated plates, unbiotinylated peptides coated directly). Conditions: for optical density (450 nm): Table 1; for number borderline / number negative / number positive / percent borderline / percent negative / percent positive: Table 17, HIV-2 positive sera, 21 tested. As to the method: as §1, §2, §3, §4, §5
The biotinylated peptides were loaded onto microtiter plates which had been coated with streptavidin. Antibody binding to these peptides was compared to antibody binding to the unibiotinylated peptides which were coated directly onto microtiter plates. It is evident that the biotinylated peptides from the HIV-1 or HIV-2 transmembrane proteins bound to streptavidin are recognized very well by antisera from HIV-1 or HIV-2 infected persons respectively. This is in contrast to the unbiotinylated versions of these peptides coated directly onto the polystyrene plates.
as §6
Two glycine residues were added at the N-terminus of each peptide to serve as a spacer and a biotin was coupled to the α-amino group of the resulting N-terminal glycine. The peptides were bound to streptavidin and coated in the wells of microwell plates. HIV-2 antibody-positive sera were used to evaluate these two peptides in an ELISA.

The mark [4] stands for this setting: Table 1, serum 0724, HIV-1 positive.
Setting [5] is: Table 1, serum PL, HIV-1 positive.
Setting [6] is: Table 1, serum VE, HIV-1 positive.
[7] abbreviates: Table 1, serum YEMO, HIV-1 positive.
Setting [8] is: Table 1, serum mm, HIV-1 positive.
The mark [9] stands for this setting: Table 1, serum 180, seronegative donor.
Where [10] appears, read: Table 1, serum 194, seronegative donor.
The mark [11] stands for this setting: Table 1, serum 195, seronegative donor.
[12] abbreviates: Table 1, serum 204, seronegative donor.

In the case of “Ac-Ile-Trp-Gly-Cys-Ser-Gly-Lys-Leu-Ile-Cys-NH2 (Ac-IWGCSGKLIC-NH2; cysteine pairing not given here) [TM-HIV-1, unbiotinylated N-acetylated decamer of the HIV-1 transmembrane protein]”, the “optical density (450 nm)” value in test [1] (setting [4]) worked out at 0.174; in test [1] (setting [5]) it was 0.000; in test [1] (setting [6]), 0.052; in test [1] (setting [7]) it was 0.162; in test [1] (setting [8]), 0.051; in test [2] (setting [9]) it was 0.000. The “optical density (450 nm)” value in test [2] (setting [10]) is on record as 0.000; in test [2] (setting [11]), 0.000; in test [2] (setting [12]), 0.000; in test [3] (serum 53-3, HIV-2 positive), 0.000; in test [3] (serum 1400, HIV-2 positive), 0.000; in test [3] (serum AG, HIV-2 positive), 0.000.
Take “Ac-Ser-Trp-Gly-Cys-Ala-Phe-Arg-Gln-Val-Cys-NH2 (Ac-SWGCAFRQVC-NH2; cysteine pairing not given here) [TM-HIV-2, unbiotinylated N-acetylated decamer of the HIV-2 transmembrane protein]”: the “optical density (450 nm)” value in test [1] (setting [4]), in test [1] (setting [5]), in test [1] (setting [6]), in test [1] (setting [7]), in test [1] (setting [8]) and in test [2] (setting [9]) was 0.000 each time. Besides, the “optical density (450 nm)” value is reported as 0.000 in test [2] (setting [10]); 0.000 in test [2] (setting [11]); 0.000 in test [2] (setting [12]); 0.000 in test [3] (serum 53-3, HIV-2 positive); 0.000 in test [3] (serum 1400, HIV-2 positive); 0.000 in test [3] (serum AG, HIV-2 positive).
Regarding “Asn Lys Thr Val Leu Pro Val Thr Ile Met Ser Gly Leu Val Phe His Ser Gln Pro Ile Asn Asp (NKTVLPVTIMSGLVFHSQPIND; printed: Asn Lys Thr Val Leu Pro Val Thr Ile Met Ser Gly Leu Val Phe His Ser Gln Pro Ile Asn Asp) [Peptide V2-239, HIV-2/SIV mm 239 V3; two glycine residues at the N-terminus and biotin]”, in test [3], the number borderline is given as 2, the number negative is 0, the number positive stood at 19 and the percent borderline was 9.5%. In test [3], this substance showed a percent negative of 0% and a percent positive of 90.5%.
As to “NNTRRGIHMGWGRTFYATGEIIG [Peptide V3-368, two glycine residues at the amino terminus, N-terminal glycine biotinylated]”, in test [1] (African sera, 45 tested), the number borderline worked out at 9, the number negative was found to be 31, the number positive is 5 and the percent borderline is 20%. Also, in test [1] (African sera, 45 tested), the percent negative is given as 69% and the percent positive stood at 11%. In test [1] (Brazilian sera, 36 tested), this substance came in with a number borderline of 15, a number negative of 5, a number positive of 16 and a percent borderline of 41.7%. Moreover, in test [1] (Brazilian sera, 36 tested), the percent negative is given as 13.9% and the percent positive was determined as 44.4%. In test [1] (European sera, 36 tested), this substance displayed a number borderline of 20, a number negative of 12, a number positive of 4 and a percent borderline of 56%. In test [1] (European sera, 36 tested), this substance showed a percent negative of 33% and a percent positive of 11%.
In test [3], “Asn Lys Thr Val Val Pro Ile Thr Leu Met Ser Gly Leu Val Phe His Ser Gln Pro Ile Asn Lys (NKTVVPITLMSGLVFHSQPINK; printed: Asn Lys Thr Val Val Pro Ile Thr Leu Met Ser Gly Leu Val Phe His Ser Gln Pro Ile Asn Lys) [Peptide V3-GB12, HIV-2 V3; two glycine residues at the N-terminus and biotin]” yielded a number borderline of 0, a number negative of 0, a number positive of 21 and a percent borderline of 0%. In test [3], this substance had a percent negative of 0% and a percent positive of 100%.
In the case of “Ac-Tyr-Asn-Lys-Arg-Lys-Arg-Ile-His-Ile-Gly-Pro-Gly-Arg-Ala-Phe-Tyr-Thr-Thr-Lys-Asn-Ile-Ile-Gly-NH2 (Ac-YNKRKRIHIGPGRAFYTTKNIIG-NH2) [Peptide V3-mn]”, the “optical density (450 nm)” value in test [1] (Table 2, sample 266) is 0.951; in test [1] (Table 2, sample 3990), 1.442; in test [1] (Table 2, sample 4436) it was 0.388; in test [1] (Table 2, sample 4438) it was 0.736; in test [1] (Table 2, sample DV), 1.314; in test [1] (Table 2, sample MM) it was 0.791. Besides, the “optical density (450 nm)” value is given as 1.106 in test [1] (Table 2, sample OOST 4); 1.025 in test [1] (Table 2, sample OOST 6); 1 389 in test [1] (Table 2, sample OOST 8); 0.531 in test [1] (Table 2, sample PL); 1.717 in test [1] (Table 2, sample VE); 1.442 in test [1] (Table 2, sample YS). In addition, the “optical density (450 nm)” value in test [2] (Table 2, negative control) is 0.063.
